For test [1], the system named is CMN1 (normal melanocytes). Briefly: Sulforhodamine B cell growth assay, normal cells. Type of test: cell-based, human. On the procedure: (§1) Cell Culture treatments. Cells were maintained in RPMI or DMEM (Mediatech, Herndon, Va.) containing 5% fetal bovine serum (Hyclone, Logan, Utah) and 1% Antibiotic-Antimycotic (GEBCO, Invitrogen Carlsbad, Calif.) as recommended per the American Type Culture Collection media protocol for each cell line. Cells were maintained in 5% CO2 at 37° C. in a humidified tissue culture incubator. Primary non-tumorigenic […] cell lines (DMN-1 and CMN-1), and human foreskin fibroblasts (HFF; CCF, Cleveland, Ohio) were cultured in DMEM-F12 medium supplemented with 10% FBS. Cells were confirmed as mycoplasma free.
(§2) Sulforhodamine B Cell Growth Assay. Cells were harvested with 0.5% trypsin/0.53 mM EDTA, washed with PBS and resuspended in media containing 10% FBS. Cells were plated in 96-well plates in 0.2-ml aliquots. Cells were allowed to adhere to the plate for 4 h and then NO-Cbl was added in different concentrations to the assay plate. A minimum of four were performed for each treatment. After 16 h, various chemotherapeutic agents including cytokines were added at different concentrations. Growth was monitored by the sulforhodamine B (SRB; Sigma Chemical, St. Louis, Mo.) colorimetric assay. After 36 h, the medium was removed, and the cells were fixed with 10% trichloroacetic acid and stained with SRB. Bound dye was eluted from the cells with 10 mM Tris-HCl (pH 10.5) and absorbance was measured at 570 nm using a Lab systems Multiskan RC 96-well plate reader (Lab Systems Multiscan RC, Thermo Lab Systems, Franklin, Mass.). To quantify the growth of the cells, the experimental absorbance values (Aexp) were compared with initial absorbance readings representing the starting cell numbers (Aini). To determine the starting cell number, an additional 96-well plate was seeded with cells and fixed at the beginning of the experiment. After 5 days growth, the untreated control cells and drug treated cells were fixed and stained with SRB. The absorbances derived from the initial plate and from the untreated cells at the end of the growth period (Afin) were defined as 0% and 100% growth, respectively. The percentage control growth (100%×[Aexp−Aini]/[Afin−Aini]) is expressed as a percentage of untreated controls.
(§3) Anti-tumor effects of NO-Cbl, Apo2L/TRAIL, and the combination iii vitro. NO-Cbl enhances the anti-cellular effects of Apo2L/TRAIL against malignant Apo2L/TRAIL-resistant cell lines. First the antiproliferative effects of three melanoma lines A375, WM9, and WM3211 (previously reported to be resistant to Apo2L/TRAIL) were measured. Although Apo2L/TRAIL was used as the chemotherapeutic agents, a wide range of anti-cancer drugs and techniques would be enhanced by the NO based cobalamin compounds due to their effective inhibition of the cell survival mechanism. Such other chemotherapeutic agents are tested in the following examples. […] The SRB antiproliferative assay, used by the National Cancer Institute (NCI) to evaluate new chemotherapeutic agents was used herein. Median effect analysis was used to analyze drug interactions between NO-Cbl and Apo2L/TRAIL. Cells were pre-treated with NO-Cbl for 16 h followed by Apo2L/TRAIL for 24 h.
(§4) The effects of nitrosylcobalamin (NO-Cbl), Apo2L/TRAIL, and the combination on the proliferation of melanoma cell lines A375, WM9, and WM3211 and normal cell lines CMN1, DMN1, and fibroblasts were observed. Cells were treated with NO-Cbl, Apo2L/TRAIL, or pre-treated with NO-Cbl followed by Apo2L/TRAIL for three days, and growth was measured by the colorimetric sulforhodamine B assay. Data points were generated to represent the mean of four replicates±standard error of the mean (SEM). Synergy between NO-Cbl and Apo2L/TRAIL was determined by median effect analysis, (combination index >1 indicates antagonism, =1 indicates additivity, and <1 indicates synergy). The combination index is represented in FIG. 1 and as the combination index observed at the specified concentrations. […]

Test [2] concerns DMN1 (normal melanocytes). Briefly: Sulforhodamine B cell growth assay, normal cells. Type of test: cell-based, human. Here is the method:
as §1, §2, §3, §4

The next test has as its system normal fibroblasts. Briefly: Sulforhodamine B cell growth assay, normal cells. Type of test: cell-based, human. On the procedure: as §1, §2, §3, §4
The subject of the next test is A375 melanoma xenografts. The test is described as follows: Growth of subcutaneous A375 xenografts in nude mice. Type of test: in vivo. The text has this:
In vivo experiments. Please see FIG. 2. The Institutional Animal Care and Use Committee at the Cleveland Clinic Foundation approved all procedures for animal experimentation. Five week-old NCR male athymic nude homozygous (nu/nu) mice (Taconic, Germantown, N.Y.) were inoculated with A375 tumors. Each experimental group contained 4 mice, each mouse bearing two tumors, on opposite flanks. There were four experimental groups (untreated, single agents, and the combination). Cultured tumor cells (4×10^6) were inoculated into flanks in the mid-axillary line. NO-Cbl was given twice daily (50 mg/kg s.c.) and recombinant trimeric Apo2L/TRAIL (50 mg/kg s.c.) was administered every other day, starting on day 2. Tumor volume was measured three times a week using the formula for a prolate spheroid: (4/3) πab^2 where 2a=major axis, 2b=minor axis. Formalin-fixed sections were processed by the Cleveland Clinic Histology Core. Sections were stained with hematoxylin and eosin and evaluated for pathologic changes in a blinded fashion.
Anti-tumor effects of NO-Cbl, Apo2L/TRAIL, and the combination in vivo. To test drug activity in vivo, subcutaneous A375 xenografts were inoculated in nude mice. FIG. 2. illustrates the effect of NO-Cbl, Apo2L/TRAIL and the combination on the growth of A375 melanoma xenografts. NCR male athymic nude (nulnu) mice (n=4 per group) were injected subcutaneously with 4×10^6 A375 cells. Drug treatments began on day two (2) after injection of tumor cells. NO-Cbl was administered twice daily for the duration of the study. Apo2L/TRAIL was administered every other day. The control mice received phosphate buffered saline. The tumor volume was measured three times per week. Data points represent the mean tumor volume (in cubic mm)±SEM. Daily drug treatments began on day 2 following implantation, at which time tumors were both visible and palpable. Untreated control tumors grew unimpeded. After 25 days, the tumors from mice treated with NO-Cbl were 67.4% smaller than the control tumors (p≦0.0002) and tumors from mice treated with Apo2L/TRAIL were 89.4% smaller than the control tumors (p≦0.00001). The tumors from mice treated with the combination of NO-Cbl and Apo2L/TRAIL were 95.7% smaller than the control tumors (p≦0.000005).

The subject of another test is IκB kinase (IKK). The test is described as follows: IκB kinase (IKK) activity assay with GST-IκBα-(1-54) and [γ32P]ATP. Type of test: cell-based, human. Particulars: A375 pretreated with NO-Cbl. Here is the method: FIG. 8 illustrates the assessment of IκB kinase (IKK) activity using recombinant GST-IκBα-(1-54) and [γ^32P]ATP as substrates. The phosphorylated GST fusion protein was detected by autoradiography. IKK activity was determined in A375 cells pretreated with NO-Cbl followed by Apo2L/TRAIL or TNF-α stimulation for 30 minutes and 15 minutes, respectively. […] Anti-β-actin antibody served as the irrelevant antibody with no phosphorylation of GST-IκBα-(1-54) observed.

For nitrosylcobalamin [NO-Cbl], the “antiproliferative effect on normal cells” value (in test [1]; in test [2]; in the test on normal fibroblasts) was “completely resistant” throughout. For the same substance, in the test with A375 melanoma xenografts (A375 xenografts, nude mice), the tumor regression entry was “Tumor regression was observed”. For the same substance, the “tumors smaller than the control tumors” value in the test on A375 melanoma xenografts (after 25 days, NO-Cbl 50 mg/kg s.c. twice daily, Apo2L/TRAIL 50 mg/kg s.c. every other day, from day 2) is 67.4%. Moreover, the “IKK activity stimulated with Apo2L/TRAIL” value with IκB kinase (IKK) (Apo2L/TRAIL 30 minutes) is listed as “inhibited”. Also, the “IKK activity stimulated with TNF-α” value with IκB kinase (IKK) (TNF-α 15 minutes) is “inhibited”.

For the origin of these results see US20080138280A1, “Composition and Methods For Inhibiting Cell Survival” (The Cleveland Clinic Foundation, priority 2003, published 2008).
